Assay [1] has as its target T1, aminocaprolactam racemase derived from Achromobacter obae (Achromobacter obae, UniProt Q7M181).
T1 sequence (Q7M181 1-436): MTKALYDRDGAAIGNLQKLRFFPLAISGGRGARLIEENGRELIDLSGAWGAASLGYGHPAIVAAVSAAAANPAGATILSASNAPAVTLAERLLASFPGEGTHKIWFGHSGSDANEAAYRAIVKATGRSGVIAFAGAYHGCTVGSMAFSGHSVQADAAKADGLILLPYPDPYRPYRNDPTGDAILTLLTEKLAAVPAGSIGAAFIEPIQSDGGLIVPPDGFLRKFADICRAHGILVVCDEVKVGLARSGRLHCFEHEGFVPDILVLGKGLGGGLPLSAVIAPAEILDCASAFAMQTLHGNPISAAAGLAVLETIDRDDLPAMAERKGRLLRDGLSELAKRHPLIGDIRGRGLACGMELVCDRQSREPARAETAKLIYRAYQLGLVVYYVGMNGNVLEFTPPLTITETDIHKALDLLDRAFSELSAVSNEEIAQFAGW
Particulars: activity for 2-aminobutyric acid amide is 100; cited from earlier work.

For assay [2], the system named is nitrile hydratase derived from Rhodococcus opacus 71D. As to the kind of experiment: Substrate specificity of the purified enzyme from Rhodococcus opacus 71D (aminonitrile to amino acid amide, HPLC). The following applies: for Relative activity for each substrate: enzymatic properties, activity for 2-aminobutyronitrile is 100; for Relative activity: 30° C., 0.1 M potassium phosphate buffer pH 7.0, activity for 2-aminobutyronitrile = 100.

Assay [3] addresses D-aminopeptidase derived from Ochrobactrum anthropi (Brucella anthropi, UniProt Q9ZBA9). Particulars: activity for D-2-aminobutyric acid amide is 100; cited from earlier work.
Assay [4] has as its system L-amino acid amidase derived from Brevundimonas diminuta. Particulars: activity for L-2-aminobutyric acid amide is 100; cited from earlier work.
Assay [5] has as its system enzyme selectively converting the L-amino acid amide into the L-amino acid, Xanthobacter flavus. Particulars: activity for L-2-aminobutyric acid amide is 100; cited from earlier work.

Sequence of D-aminopeptidase derived from Ochrobactrum anthropi (Q9ZBA9 whole entry, looked up): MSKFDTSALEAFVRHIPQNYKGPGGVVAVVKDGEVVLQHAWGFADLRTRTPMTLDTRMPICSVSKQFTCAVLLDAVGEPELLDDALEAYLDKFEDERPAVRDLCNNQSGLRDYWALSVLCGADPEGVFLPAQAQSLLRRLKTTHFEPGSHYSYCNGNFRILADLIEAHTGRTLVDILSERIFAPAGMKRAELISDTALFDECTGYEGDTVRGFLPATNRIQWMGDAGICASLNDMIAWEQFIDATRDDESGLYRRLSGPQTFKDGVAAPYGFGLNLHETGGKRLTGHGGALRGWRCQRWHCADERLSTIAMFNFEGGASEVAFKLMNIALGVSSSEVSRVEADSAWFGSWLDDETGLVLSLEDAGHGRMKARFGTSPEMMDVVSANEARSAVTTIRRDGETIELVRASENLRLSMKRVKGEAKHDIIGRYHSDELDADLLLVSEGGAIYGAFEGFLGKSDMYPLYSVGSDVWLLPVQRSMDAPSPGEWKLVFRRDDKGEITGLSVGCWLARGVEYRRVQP

`CCC(N)C(N)=O` (stereo not drawn) [2-aminobutyric acid amide]: in assay [1], the “Relative activity for each substrate” value is given as 100.
`CCC(N)C#N` (stereo not drawn) [2-aminobutyronitrile]: in assay [2], the “Relative activity for each substrate” value is reported as 100. Also, the Relative activity in assay [2] (substrate 20 mM) amounted to 100.
As to `CC(N)C#N` (stereo not drawn) [Alaninonitrile], the “Relative activity for each substrate” value in assay [2] worked out at 77. Besides, the Relative activity in assay [2] (substrate 20 mM) is recorded as 77.0.
With `CC[C@@H](N)C(N)=O` [D-2-aminobutyric acid amide], the “Relative activity for each substrate” value in assay [3] was 100.
Regarding `C[C@@H](N)C(N)=O` [D-alaninamide], in assay [3], the “Relative activity for each substrate” value was 333.
With `CSCC[C@@H](N)C(N)=O` [D-methioninamide], in assay [3], the “Relative activity for each substrate” value was 6.7.
With `CCCC[C@@H](N)C(N)=O` [D-norleuicinamide], the “Relative activity for each substrate” value in assay [3] is recorded as 2.7.
Regarding `CCC[C@@H](N)C(N)=O` [D-norvalinamide], the “Relative activity for each substrate” value in assay [3] is listed as 6.
Regarding `NC(=O)[C@H](N)c1ccccc1` [D-phenylglycinamide], in assay [3], the “Relative activity for each substrate” value is recorded as 2.3.
In the case of `NC(=O)[C@H](N)CO` [D-serinamide], the “Relative activity for each substrate” value in assay [3] is 97.
Take `C[C@H](O)[C@@H](N)C(N)=O` [D-threoninamide]: the “Relative activity for each substrate” value in assay [3] is on record as 30.
For `CC[C@H](N)C(N)=O` [L-2-aminobutyric acid amide], the “Relative activity for each substrate” value in assay [4] and in assay [5] was 100 in each case.
Regarding `C[C@H](N)C(N)=O` [L-alaninamide], the “Relative activity for each substrate” value in assay [1] is given as 78; in assay [4] it was 3.4.
Regarding `CC[C@H](C)[C@H](N)C(N)=O` [L-isoleuicinamide], the “Relative activity for each substrate” value in assay [4] is given as 30.2.
Turning to `CC(C)C[C@H](N)C(N)=O` [L-leuicinamide], the “Relative activity for each substrate” value is on record as 48 in assay [1] and 92.7 in assay [4].
As for `CSCC[C@H](N)C(N)=O` [L-methioninamide], the “Relative activity for each substrate” value is recorded as 35 in assay [1] and 85.4 in assay [4].
Regarding `CCCC[C@H](N)C(N)=O` [L-norleuicinamide], the “Relative activity for each substrate” value in assay [1] is 56.
Consider `CCC[C@H](N)C(N)=O` [L-norvalinamide], for which, in assay [1], the “Relative activity for each substrate” value is listed as 63.
Take `NC(=O)[C@@H](N)Cc1ccccc1` [L-phenylalaninamide]: the figures for the “Relative activity for each substrate” value in assay [1], in assay [4] and in assay [5] were 2, 104 and 111, respectively.
Turning to `NC(=O)[C@@H](N)c1ccccc1` [L-phenylglycinamide], the “Relative activity for each substrate” value in assay [5] is 113.
Take `NC(=O)[C@@H](N)CO` [L-serinamide]: the results for the “Relative activity for each substrate” value in assay [1] and in assay [4] were 17 and 2.9, respectively.
With `CC(C)(C)[C@H](N)C(N)=O` [L-t-leuicinamide], the “Relative activity for each substrate” value is recorded as 0.2 in assay [4] and 8.4 in assay [5].
For the compound `C[C@@H](O)[C@H](N)C(N)=O` [L-threoninamide], the “Relative activity for each substrate” value in assay [1] is reported as 63; in assay [4], 14.6.
On to `CC(C)[C@H](N)C(N)=O` [L-valinamide], for which the “Relative activity for each substrate” value in assay [4] is 17.7; in assay [5] it was 65.
With `N#C[C@@H](N)Cc1ccccc1` [Phenylalaninonitrile], the “Relative activity for each substrate” value in assay [2] is listed as 42.9. This compound had a Relative activity in assay [2] (substrate concentration 10 mM) of 42.9.
In the case of `N#CC(N)c1ccccc1` (stereo not drawn) [Phenylglycinonitirle], the “Relative activity for each substrate” value in assay [2] is listed as 177. This compound had a Relative activity in assay [2] (substrate 20 mM) of 177.
For `CC(C)[C@H](N)C#N` [Valinonitrile], the “Relative activity for each substrate” value in assay [2] is 15.1. Moreover, the Relative activity in assay [2] (substrate 20 mM) was 15.1.
As for `CC(C)C[C@H](N)C#N` [leucinonitrile], the “Relative activity for each substrate” value in assay [2] stood at 11.8.
Regarding `CC(C)(C)C(N)C#N` (stereo not drawn) [t-leuicinonitrile], the “Relative activity for each substrate” value in assay [2] is on record as 1.80. The Relative activity in assay [2] (substrate 20 mM) stood at 1.8.

The values above are taken from patent US20100105111A1, “METHOD FOR PRODUCTION OF OPTICALLY ACTIVE AMINO ACID” (Mitsubishi Gas Chemical Company, Inc., priority 2007, published 2010).
